Target: Aβ (1-42) (Homo sapiens, UniProt P05067)
Assay: Thioflavin T fluorescence anti-aggregation assay with […] Aβ
Assay type: biochemical

Chain of Aβ (1-42) (P05067 672-713): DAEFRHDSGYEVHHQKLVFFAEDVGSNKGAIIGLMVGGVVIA

Work on O=c1oc2c(O)c(O)cc3c(=O)oc4c(O)c(O)cc1c4c23 [EA, Ellagic acid] yielded an IC50 of 8.01 ± 0.5 µM.

Source: publication PMC11416286 (Heliyon, 2024)
